Data published in US20070251020A1, “Fungicidal compositions and methods of using the same” (priority 2006, published 2007).

Tests used:
Assay type in all cases: cell-based
Aspergillus niger [1] = test: Screening for anti-fungal activity in mineral-salts glucose medium, visual growth / no growth; design: key: −: no growth; +: slight growth; ++: moderate growth; +++: heavy growth; ++++: very heavy growth; details: 25° C.
Method: The pH of the medium was adjusted to 6 with 1N NaOH. The medium was distributed in 50 ml amounts into 250 ml flasks and autoclaved at 121° C. for 20 minutes. The test fungus, Aspergillus niger, was grown on potato dextrose agar for 7-10 days. A spore/hyphal suspension of the fungus was prepared by washing down the spores/hyphae from the slant with sterile saline into a bottle containing 30 ml sterile saline and shaken. The chemicals were added to the sterile mineral-salts medium in the desired concentrations, and each flask was inoculated with a suspension of the fungal suspension to give a final fungal count of approximately 1×10^6 cfu/ml. The inoculated samples were incubated at 25° C. and inspected visually for growth or no growth at 7 and 14 days.

Penicillium sp. = test: Wet blue pieces dipped in active substance, mold exposure in petri-dishes, industrial isolate; design: key to GROWTH Wk. 1 / GROWTH Wk. 2 / GROWTH Wk. 3 / GROWTH Wk. 4 / GROWTH Wk. 5 / GROWTH Wk. 7 / GROWTH Wk. 8 / GROWTH Wk. 9: 0: no growth on surface; +: less than half of surface covered with mold; ++: about half of surface covered with mold; +++: about ¾ of surface covered with mold; ++++: the whole surface covered with mold
Method: One inch square pieces of wet blue that had not been previously treated with fungicide were dipped in either 0.5% or 0.25% (by wt) mixtures of each active substance in water. Sodium omadine was included among the substances tested, as a positive control. The test organism, Aspergillus niger, was grown on potato dextrose agar for 5-days in petri-dishes. The wet blue pieces were placed on top of pieces of bent glass rod, thereby preventing direct contact with the “lawn” of Aspergillus niger. Thus, exposure of the wet blue to Aspergillus niger was limited to airborne spores, simulating one of the most common modes of exposure experienced in practice. For each active substance and concentration studied, wet blue pieces were suspended both grain side up and flesh side up. A bottom half of a petri-dish was used as a cover to provide a growth chamber for each sample. These growth chambers were incubated at 25° C. and evaluated weekly to determine the degree of fungal infestation on the wet blue surfaces.
Some of the minimum risk fungicides identified above were further tested against an industrial isolate of Penicillium sp, as shown in Table 3. This particular “wild strain” of Penicillium was isolated from commercial wet blue that was seriously contaminated with mold. […] Once again, one inch square pieces of wet blue were dipped in mixtures of active substances in water—this time at 1% and 0.5% concentrations. The mold exposure was carried out in petri-dishes as in EXAMPLE 2, but with Penicillium sp. as the test organism.

Aspergillus niger [2] = test: Wet blue pieces dipped in active substance, exposed to airborne spores in petri-dish growth chambers; design: key to GROWTH Wk. 1 / GROWTH Wk. 2 / GROWTH Wk. 3 / GROWTH Wk. 4 / GROWTH Wk. 5 / GROWTH Wk. 6 / GROWTH Wk. 7: 0: no growth on surface; +: less than half of surface covered with mold; ++: about half of surface covered with mold; +++: about ¾ of surface covered with mold; ++++: the whole surface covered with mold
Method: Sodium omadine was included among the substances tested, as a positive control. The test organism, Aspergillus niger, was grown on potato dextrose agar for 5-days in petri-dishes. The wet blue pieces were placed on top of pieces of bent glass rod, thereby preventing direct contact with the “lawn” of Aspergillus niger. Thus, exposure of the wet blue to Aspergillus niger was limited to airborne spores, simulating one of the most common modes of exposure experienced in practice. For each active substance and concentration studied, wet blue pieces were suspended both grain side up and flesh side up. A bottom half of a petri-dish was used as a cover to provide a growth chamber for each sample. These growth chambers were incubated at 25° C. and evaluated weekly to determine the degree of fungal infestation on the wet blue surfaces.

O=C([O-])c1ccccc1.[Na+] [Sodium benzoate]
GROWTH 7-days (Aspergillus niger [1]; 0.5% by wt.): ++
GROWTH 7-days (Aspergillus niger [1]; 1% by wt.): +

CC(=O)c1c([O-])cc(C)oc1=O.[Na+] [Sodium dehydroacetate, reference compound]
GROWTH 7-days (Aspergillus niger [1]; 0.5% by wt.): −
GROWTH 14-days (Aspergillus niger [1]; 0.5% by wt.): −
GROWTH 7-days (Aspergillus niger [1]; 1% by wt.): −
GROWTH 14-days (Aspergillus niger [1]; 1% by wt.): −

CCCCCCCCCCCCOS(=O)(=O)[O-].[Na+] [Sodium lauryl sulfate]
GROWTH Wk. 1 (Penicillium sp.; 0.5% (flesh)): 0
GROWTH Wk. 2 (Penicillium sp.; 0.5% (flesh)): 0
GROWTH Wk. 3 (Penicillium sp.; 0.5% (flesh)): 0
GROWTH Wk. 4 (Penicillium sp.; 0.5% (flesh)): +
GROWTH Wk. 5 (Penicillium sp.; 0.5% (flesh)): ++
GROWTH Wk. 7 (Penicillium sp.; 0.5% (flesh)): ++++
GROWTH Wk. 8 (Penicillium sp.; 0.5% (flesh)): ++++
GROWTH Wk. 9 (Penicillium sp.; 0.5% (flesh)): ++++
GROWTH Wk. 1 (Penicillium sp.; 0.5% (grain)): 0
GROWTH Wk. 2 (Penicillium sp.; 0.5% (grain)): 0
GROWTH Wk. 3 (Penicillium sp.; 0.5% (grain)): +
GROWTH Wk. 4 (Penicillium sp.; 0.5% (grain)): ++++
GROWTH Wk. 5 (Penicillium sp.; 0.5% (grain)): ++++
GROWTH Wk. 7 (Penicillium sp.; 0.5% (grain)): ++++
GROWTH Wk. 8 (Penicillium sp.; 0.5% (grain)): ++++
GROWTH Wk. 9 (Penicillium sp.; 0.5% (grain)): ++++
GROWTH Wk. 1 (Penicillium sp.; 1% (flesh)): 0
GROWTH Wk. 2 (Penicillium sp.; 1% (flesh)): 0
GROWTH Wk. 3 (Penicillium sp.; 1% (flesh)): 0
GROWTH Wk. 4 (Penicillium sp.; 1% (flesh)): 0
GROWTH Wk. 5 (Penicillium sp.; 1% (flesh)): +
GROWTH Wk. 7 (Penicillium sp.; 1% (flesh)): ++++
GROWTH Wk. 8 (Penicillium sp.; 1% (flesh)): ++++
GROWTH Wk. 9 (Penicillium sp.; 1% (flesh)): ++++
GROWTH Wk. 1 (Penicillium sp.; 1% (grain)): 0
GROWTH Wk. 2 (Penicillium sp.; 1% (grain)): 0
GROWTH Wk. 3 (Penicillium sp.; 1% (grain)): 0
GROWTH Wk. 4 (Penicillium sp.; 1% (grain)): 0
GROWTH Wk. 5 (Penicillium sp.; 1% (grain)): 0
GROWTH Wk. 7 (Penicillium sp.; 1% (grain)): 0
GROWTH Wk. 8 (Penicillium sp.; 1% (grain)): 0
GROWTH Wk. 9 (Penicillium sp.; 1% (grain)): 0
resistance of treated wet blue compared with unprotected controls (Penicillium sp.; wet blue dipped at 1% and 0.5%, Prosan 18 as positive control): substantially improved over the unprotected controls
GROWTH 7-days (Aspergillus niger [1]; 0.5% by wt.): −
GROWTH 14-days (Aspergillus niger [1]; 0.5% by wt.): −
GROWTH 7-days (Aspergillus niger [1]; 1% by wt.): −
GROWTH 14-days (Aspergillus niger [1]; 1% by wt.): −
GROWTH Wk. 1 (Aspergillus niger [2]; 0.25% (flesh)): 0
GROWTH Wk. 2 (Aspergillus niger [2]; 0.25% (flesh)): 0
GROWTH Wk. 3 (Aspergillus niger [2]; 0.25% (flesh)): 0
GROWTH Wk. 4 (Aspergillus niger [2]; 0.25% (flesh)): 0
GROWTH Wk. 5 (Aspergillus niger [2]; 0.25% (flesh)): 0
GROWTH Wk. 6 (Aspergillus niger [2]; 0.25% (flesh)): 0
GROWTH Wk. 7 (Aspergillus niger [2]; 0.25% (flesh)): ++
GROWTH Wk. 1 (Aspergillus niger [2]; 0.25% (grain)): 0
GROWTH Wk. 2 (Aspergillus niger [2]; 0.25% (grain)): 0
GROWTH Wk. 3 (Aspergillus niger [2]; 0.25% (grain)): 0
GROWTH Wk. 4 (Aspergillus niger [2]; 0.25% (grain)): 0
GROWTH Wk. 5 (Aspergillus niger [2]; 0.25% (grain)): 0
GROWTH Wk. 6 (Aspergillus niger [2]; 0.25% (grain)): 0
GROWTH Wk. 7 (Aspergillus niger [2]; 0.25% (grain)): ++
GROWTH Wk. 1 (Aspergillus niger [2]; 0.5% (flesh)): 0
GROWTH Wk. 2 (Aspergillus niger [2]; 0.5% (flesh)): 0
GROWTH Wk. 3 (Aspergillus niger [2]; 0.5% (flesh)): 0
GROWTH Wk. 4 (Aspergillus niger [2]; 0.5% (flesh)): 0
GROWTH Wk. 5 (Aspergillus niger [2]; 0.5% (flesh)): 0
GROWTH Wk. 6 (Aspergillus niger [2]; 0.5% (flesh)): 0
GROWTH Wk. 7 (Aspergillus niger [2]; 0.5% (flesh)): 0
GROWTH Wk. 1 (Aspergillus niger [2]; 0.5% (grain)): 0
GROWTH Wk. 2 (Aspergillus niger [2]; 0.5% (grain)): 0
GROWTH Wk. 3 (Aspergillus niger [2]; 0.5% (grain)): 0
GROWTH Wk. 4 (Aspergillus niger [2]; 0.5% (grain)): 0
GROWTH Wk. 5 (Aspergillus niger [2]; 0.5% (grain)): 0
GROWTH Wk. 6 (Aspergillus niger [2]; 0.5% (grain)): 0
GROWTH Wk. 7 (Aspergillus niger [2]; 0.5% (grain)): +
duration of protection of wet blue (Aspergillus niger [2]; at the concentration tested, petri-dishes): six to seven

[Na+].[O-][n+]1ccccc1[S-] [Sodium omadine, reference compound]
GROWTH Wk. 1 (Aspergillus niger [2]; 0.05% (flesh)): 0
GROWTH Wk. 2 (Aspergillus niger [2]; 0.05% (flesh)): 0
GROWTH Wk. 3 (Aspergillus niger [2]; 0.05% (flesh)): 0
GROWTH Wk. 4 (Aspergillus niger [2]; 0.05% (flesh)): 0
GROWTH Wk. 5 (Aspergillus niger [2]; 0.05% (flesh)): 0
GROWTH Wk. 6 (Aspergillus niger [2]; 0.05% (flesh)): 0
GROWTH Wk. 7 (Aspergillus niger [2]; 0.05% (flesh)): 0
GROWTH Wk. 1 (Aspergillus niger [2]; 0.05% (grain)): 0
GROWTH Wk. 2 (Aspergillus niger [2]; 0.05% (grain)): 0
GROWTH Wk. 3 (Aspergillus niger [2]; 0.05% (grain)): 0
GROWTH Wk. 4 (Aspergillus niger [2]; 0.05% (grain)): 0
GROWTH Wk. 5 (Aspergillus niger [2]; 0.05% (grain)): 0
GROWTH Wk. 6 (Aspergillus niger [2]; 0.05% (grain)): 0
GROWTH Wk. 7 (Aspergillus niger [2]; 0.05% (grain)): 0

O=C([O-])c1ccccc1O.[Na+] [Sodium salicylate, reference compound]
GROWTH 7-days (Aspergillus niger [1]; 0.5% by wt.): ++++
GROWTH 7-days (Aspergillus niger [1]; 1% by wt.): ++++
